Measurements as given in PubChem BioAssay (NCI).
Where “and” joins values, the source holds several entries; their conditions need not be identical. Identical values can stand only once.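 In this assay, cells in 96-well plates receive the compound at five concentrations for 48 hours. Endpoints are linearly interpolated between the surrounding concentrations. GI50 is the concentration that inhibits growth by half. The concentration for full growth arrest is given as TGI.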

Test system: LOX IMVI melanoma
Assay: growth of human tumour cells (NCI), 48 h

First: COC(=O)c1ccc2cc(O)c(O)cc2c1
Second: CN(C)C=Nc1ccc2c3c(cccc13)-c1ccccc1-2
The TGI of the first is higher: over 100 µM for the first, 28.3 µM for the second.

For `COC(=O)C1C(O)C(C)C(O)C(C)(O)C=C(C)C2=C3C(=C(C)C(=O)c4c(O)c(c(C)c(OC(C)=O)c43)NC(=O)C(C)=C/C=C\C(C)(O)C(O)C(C)C1O)OCO2` (configuration not stated), the TGI was over 100 µM.

Test system: M14 melanoma
Assay: growth of human tumour cells (NCI), 48 h

Compared with `CC(=O)c1c(-c2ccc(Cl)cc2)c(C#N)c(=S)n(C2OC(CO)C(O)C(O)C2O)c1-c1ccccc1` (configuration not stated), `CN(C)C=Nc1ccc2c3c(cccc13)-c1ccccc1-2` is lower in TGI: over 100 µM for the first, 22.1 µM for the second.

`COC(=O)c1ccc2cc(O)c(O)cc2c1` and `COC(=O)C1C(O)C(C)C(O)C(C)(O)C=C(C)C2=C3C(=C(C)C(=O)c4c(O)c(c(C)c(OC(C)=O)c43)NC(=O)C(C)=C/C=C\C(C)(O)C(O)C(C)C1O)OCO2` (configuration not stated) cannot be ordered by TGI: over 100 µM for the first, over 100 µM for the second.

Test system: MALME-3M melanoma
Assay: growth of human tumour cells (NCI), 48 h

Compared with `CC(=O)c1c(-c2ccc(Cl)cc2)c(C#N)c(=S)n(C2OC(CO)C(O)C(O)C2O)c1-c1ccccc1` (configuration not stated), `CN(C)C=Nc1ccc2c3c(cccc13)-c1ccccc1-2` is lower in TGI: over 100 µM for the first, 34.6 µM for the second.

First: COC(=O)c1ccc2cc(O)c(O)cc2c1
Second: COC(=O)C1C(O)C(C)C(O)C(C)(O)C=C(C)C2=C3C(=C(C)C(=O)c4c(O)c(c(C)c(OC(C)=O)c43)NC(=O)C(C)=C/C=C\C(C)(O)C(O)C(C)C1O)OCO2 (configuration not stated)
The TGI of the first is higher: over 79 µM for the first, 74.2 µM for the second.

Test system: MCF7 breast
Assay: growth of human tumour cells (NCI), 48 h

Going from `CC(=O)c1c(-c2ccc(Cl)cc2)c(C#N)c(=S)n(C2OC(CO)C(O)C(O)C2O)c1-c1ccccc1` (configuration not stated) to `CN(C)C=Nc1ccc2c3c(cccc13)-c1ccccc1-2`, the TGI falls from over 100 µM to 30.7 µM.

`COC(=O)c1ccc2cc(O)c(O)cc2c1` and `COC(=O)C1C(O)C(C)C(O)C(C)(O)C=C(C)C2=C3C(=C(C)C(=O)c4c(O)c(c(C)c(OC(C)=O)c43)NC(=O)C(C)=C/C=C\C(C)(O)C(O)C(C)C1O)OCO2` (configuration not stated) cannot be ordered by TGI: over 100 µM for the first, over 100 µM for the second.

Test system: MDA-MB-231 breast
Assay: growth of human tumour cells (NCI), 48 h

In the case of `CC(=O)c1c(-c2ccc(Cl)cc2)c(C#N)c(=S)n(C2OC(CO)C(O)C(O)C2O)c1-c1ccccc1` (configuration not stated), the GI50 is reported as > 22.6 µM and 76.3 µM.

Going from `CC(=O)c1c(-c2ccc(Cl)cc2)c(C#N)c(=S)n(C2OC(CO)C(O)C(O)C2O)c1-c1ccccc1` (configuration not stated) to `CN(C)C=Nc1ccc2c3c(cccc13)-c1ccccc1-2`, the TGI falls from over 100 µM to 28.2 µM.

`COC(=O)c1ccc2cc(O)c(O)cc2c1` and `COC(=O)C1C(O)C(C)C(O)C(C)(O)C=C(C)C2=C3C(=C(C)C(=O)c4c(O)c(c(C)c(OC(C)=O)c43)NC(=O)C(C)=C/C=C\C(C)(O)C(O)C(C)C1O)OCO2` (configuration not stated) cannot be ordered by TGI: over 100 µM for the first, over 100 µM for the second.

Test system: MDA-MB-435
Assay: growth of human tumour cells (NCI), 48 h

Going from `CC(=O)c1c(-c2ccc(Cl)cc2)c(C#N)c(=S)n(C2OC(CO)C(O)C(O)C2O)c1-c1ccccc1` (configuration not stated) to `CN(C)C=Nc1ccc2c3c(cccc13)-c1ccccc1-2`, the TGI falls from over 100 µM to 28.3 µM.

`COC(=O)c1ccc2cc(O)c(O)cc2c1` and `COC(=O)C1C(O)C(C)C(O)C(C)(O)C=C(C)C2=C3C(=C(C)C(=O)c4c(O)c(c(C)c(OC(C)=O)c43)NC(=O)C(C)=C/C=C\C(C)(O)C(O)C(C)C1O)OCO2` (configuration not stated) cannot be ordered by TGI: over 100 µM for the first, over 100 µM for the second.

Test system: MDA-N
Assay: growth of human tumour cells (NCI), 48 h

Going from `CC(=O)c1c(-c2ccc(Cl)cc2)c(C#N)c(=S)n(C2OC(CO)C(O)C(O)C2O)c1-c1ccccc1` (configuration not stated) to `CN(C)C=Nc1ccc2c3c(cccc13)-c1ccccc1-2`, the TGI falls from over 100 µM to 27.6 µM.

`COC(=O)c1ccc2cc(O)c(O)cc2c1` and `COC(=O)C1C(O)C(C)C(O)C(C)(O)C=C(C)C2=C3C(=C(C)C(=O)c4c(O)c(c(C)c(OC(C)=O)c43)NC(=O)C(C)=C/C=C\C(C)(O)C(O)C(C)C1O)OCO2` (configuration not stated) cannot be ordered by TGI: over 100 µM for the first, over 100 µM for the second.

Test system: MOLT-4 leukemia
Assay: growth of human tumour cells (NCI), 48 h

For `CC(=O)c1c(-c2ccc(Cl)cc2)c(C#N)c(=S)n(C2OC(CO)C(O)C(O)C2O)c1-c1ccccc1` (configuration not stated), the TGI was 29.2 µM and > 100 µM.

Going from `COC(=O)c1ccc2cc(O)c(O)cc2c1` to `CN(C)C=Nc1ccc2c3c(cccc13)-c1ccccc1-2`, the TGI falls from over 68.8 µM to 24.8 µM.

With `COC(=O)C1C(O)C(C)C(O)C(C)(O)C=C(C)C2=C3C(=C(C)C(=O)c4c(O)c(c(C)c(OC(C)=O)c43)NC(=O)C(C)=C/C=C\C(C)(O)C(O)C(C)C1O)OCO2` (configuration not stated) the TGI was over 100 µM.
